Measured values reported in ChEMBL document CHEMBL1201862, “PubChem BioAssay data set” (2004).
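Protocol summary: plate cells (96-well), add compound at 5 concentrations, incubate 48 h, interpolate endpoints linearly. GI50: concentration for 50% inhibition of growth.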 Active and inactive are the calls of the source. No stated cut-off is given here; in the data, active = GI50 up to about 1.1 µM and inactive = higher.

Legend:
Assay in all cases: NCI tumour cell line growth inhibition, 48 h
MDA-N = test system: MDA-N
BT-549 = test system: BT-549
RXF 631 = test system: RXF 631
SNB-78 = test system: SNB-78
DMS-114 = test system: DMS-114
M19-MEL = test system: M19-MEL
DLD-1 = test system: DLD-1
LXFL 529 = test system: LXFL 529
HOP-18 = test system: HOP-18

SMILES | GI50 (MDA-N) | GI50 (BT-549) | further results
C[N+](C)(C)CCN[N+]1(C)CCCc2ccccc21 (configuration not stated) | > 100 µM (inactive) | > 100 µM (inactive) | 
C=C(C)CN(CC#N)CC(=C)C | > 100 µM (inactive) | > 100 µM (inactive) | 
O=C(CN1C(=O)c2ccccc2C1=O)C(O)CN1C(=O)c2ccccc2C1=O (configuration not stated) | > 100 µM (inactive) | 48.1 µM (inactive) | 
O=C(O)c1ccc(O)c(/N=N/c2cc(S(=O)(=O)O)c3ccccc3c2O)c1 |  |  | GI50 (RXF 631): > 100 µM (inactive); GI50 (SNB-78): > 100 µM (inactive); GI50 (DMS-114): 82.6 µM (inactive); GI50 (M19-MEL): 55.6 µM (inactive); GI50 (DLD-1): > 100 µM (inactive)
COC1(OC)CC(CO)(CNc2nc(N)nc(Cl)c2/C=N\O)C1 | 63.2 µM (inactive) | 25.3 µM (inactive) | 
NC(=O)N/N=C1\CCCCc2ccccc21 | > 10 µM (inactive) | > 10 µM (inactive) | 
CC(C)(C)/C(=N\Nc1nc2ccccc2[nH]1)c1ccccn1 | > 100 µM (inactive) | > 100 µM (inactive) | 
COC(=O)N/N=C(\C)C(CN1CCOCC1)C(c1ccccc1)c1cc2ccccc2oc1=O (configuration not stated) |  | 68.7 µM (inactive) | 
CCOC(=O)NC(=O)c1cn(C2OC(CO)C(O)C2O)c(=O)[nH]c1=O (configuration not stated) |  |  | GI50 (RXF 631): > 100 µM (inactive); GI50 (DMS-114): > 100 µM (inactive); GI50 (M19-MEL): > 100 µM (inactive); GI50 (DLD-1): > 100 µM (inactive); GI50 (LXFL 529): > 100 µM (inactive)
Clc1cc(Cl)c2cc3cccc[n+]3cc2c1Cl | 16.5 µM (inactive) | 6.76 µM (inactive) | 
COc1cccc(OCC(=N/NC(=O)c2ccncc2)/N=C/c2cccnc2)c1 | > 100 µM (inactive) | > 100 µM (inactive) | 
CCCC(=O)N[C@@H](Cc1cc(I)c(O)c(I)c1)C(=O)NCCCNCCCCNCCCNC(=O)[C@@H](N)CCCN=C(N)N |  |  | GI50 (DMS-114): > 100 µM (inactive); GI50 (M19-MEL): 40.1 µM (inactive); GI50 (LXFL 529): 78 µM (inactive)
CCOC(=O)C(C(=O)c1ccccc1C(=O)OC)=P(c1ccccc1)(c1ccccc1)c1ccccc1 | > 10 µM (inactive) | > 10 µM (inactive) | 
O=C(OCCN=C1c2ccccc2CCc2ccccc21)c1cc([N+](=O)[O-])cc([N+](=O)[O-])c1 | > 31.6 µM (inactive) | > 100 µM (inactive) | 
N#C/C(=C\c1cn(Cc2ccccc2)c2ccccc12)c1nn(-c2ccccc2)c(N)c1C#N | 23.2 µM (inactive) | 22.3 µM (inactive) | 
O=C1CCCC/C1=C1\C(=O)Nc2cc(F)ccc21 |  |  | GI50 (SNB-78): > 100 µM (inactive); GI50 (HOP-18): > 100 µM (inactive); GI50 (DMS-114): > 100 µM (inactive); GI50 (M19-MEL): > 100 µM (inactive); GI50 (DLD-1): > 100 µM (inactive); GI50 (LXFL 529): > 100 µM (inactive)
S=C(/N=c1\sc(NCc2ccccc2)nc2sc3c(c12)CCN(N1CCc2c(sc4nc(NCc5ccccc5)s/c(=N\C(=S)NCc5ccccc5)c24)C1)C3)NCc1ccccc1 | 42.5 µM (inactive) | 62.2 µM (inactive) | 

SMILES | GI50 (MDA-N) | GI50 (BT-549) | further results
O=C1C(Nc2ccc(S(=O)(=O)Nc3cnc4ccccc4n3)cc2)=C/C(=N\c2ccc(S(=O)(=O)Nc3cnc4ccccc4n3)cc2)c2ccccc21 | 18.8 µM (inactive) |  | GI50 (SNB-78): 22.5 µM (inactive); GI50 (HOP-18): 13.7 µM (inactive); GI50 (DMS-114): 21.2 µM (inactive); GI50 (M19-MEL): 16.6 µM (inactive); GI50 (DLD-1): 17.9 µM (inactive); GI50 (LXFL 529): 15.2 µM (inactive)
CC1CCC(C(C)C)C(OC(=O)NCn2cc(-c3ccccc3)nn2)C1 (configuration not stated) |  | > 100 µM (inactive) | 
CC[C@@]1(C)CCC2c3ccc(O)cc3CC[C@H]2C1C (some centres not stated) | 13.1 µM (inactive) | 19 µM (inactive) | 
CCCCCCCC/C=C\CCCCCCC(F)C(=O)O (configuration not stated) | > 12.5 µM (inactive) |  | 
CS(=O)(=O)CCC1CCC(=O)O1 (configuration not stated) |  | 53 µM (inactive) | 
CC(=O)CC(=O)ON(C)C(C)=O |  |  | GI50 (SNB-78): > 100 µM (inactive); GI50 (DMS-114): > 100 µM (inactive); GI50 (M19-MEL): > 100 µM (inactive); GI50 (DLD-1): > 100 µM (inactive); GI50 (LXFL 529): > 100 µM (inactive)
C[C@]12CC[C@@H]3c4ccc(O)cc4CC[C@H]3[C@@H]1CC[C@@H]2OC(=O)CCc1ccccc1 | 7.46 µM (inactive) | 18.5 µM (inactive) | 
O=C1/C(=C/c2ccccc2)CN(C(=O)OCC(Cl)(Cl)Cl)C/C1=C\c1ccccc1 |  |  | GI50 (SNB-78): 1.34 µM (inactive); GI50 (HOP-18): 3.57 µM (inactive); GI50 (DMS-114): 1.95 µM (inactive); GI50 (M19-MEL): 1.39 µM (inactive); GI50 (DLD-1): 1.91 µM (inactive); GI50 (LXFL 529): 1.78 µM (inactive)
O=C(Nc1nc(C23CC4CC(CC(C4)C2)C3)cs1)c1c(O)c2ccccc2[nH]c1=O | > 100 µM (inactive) | > 100 µM (inactive) | 
CC(CC(=O)Nc1ccc(NC(=O)CC(C)/N=N\C(N)=O)cc1)/N=N\C(N)=O (configuration not stated) |  |  | GI50 (HOP-18): > 100 µM (inactive); GI50 (DMS-114): 15.6 µM (inactive); GI50 (M19-MEL): > 100 µM (inactive); GI50 (DLD-1): 34.5 µM (inactive); GI50 (LXFL 529): > 100 µM (inactive)
C[C@]12C(=O)OC[C@H](c3ccccc3)N1C(=O)N(Cc1ccccc1)[C@@H]2CO | > 100 µM (inactive) | > 100 µM (inactive) | 
Cc1c(C(=O)c2ccc(N)c3ccccc23)c2ccccc2n1CCN1CCOCC1 | 16.3 µM (inactive) | 27.4 µM (inactive) | 
Nc1ncnc2c1ncn2C1C=CC(COS(N)(=O)=O)C1 (configuration not stated) | 22.5 µM (inactive) |  | 
Cc1nnc2n1-c1ccccc1-c1[nH]c3ccccc3c1C2 | 61.1 µM (inactive) |  | 
Nc1ncnc2ccc(Sc3ccc4ncnc(N)c4c3)cc12 |  | > 100 µM (inactive) | 
CCc1cc2c(oc3cc(C)ccc32)c(=O)n1C | > 10 µM (inactive) | > 10 µM (inactive) | 
COc1ccc2c(O)c(S(=O)(=O)c3ccc(C)cc3)c(=O)oc2c1OC | > 100 µM (inactive) | > 100 µM (inactive) | 
